# Patent publication US20200093890A1, “COMPOSITIONS AND METHODS FOR TREATING ALZHEIMER'S DISEASE” (CASE WESTERN RESERVE UNIVERSITY, priority 2017, published 2020)
# Test system: APP processing
# Experiment: Immunoblot of APP processing (FIG. 12)
# Description: FIG. 12 illustrates an immunoblot showing the effects ISP in combination with a γ-secretase inhibitor on APP processing compared to a γ-secretase inhibitor administered alone or a BACE1 inhibitor administered in combination with a γ-secretase inhibitor. […]
substance,measurement,setting,value
NH2GRKKRRQRRRCDMAEHTMERLKANDSLKLSQEYESI-NH2 [ISP],effect on APP processing (immunoblot),"ISP in combination with a γ-secretase inhibitor, compared to a γ-secretase inhibitor alone or a BACE1 inhibitor in combination with a γ-secretase inhibitor",substantially inhibited APP processing
same,suppression of APP amyloidogenic processing by BACE1,"blocking PTPσ with wedge domain peptide mimetic, compared with PTPσ depletion","suppress APP amyloidogenic processing by BACE1, to a similar degree as PTPσ depletion"
